Measured values as given in patent US4921871A, “Enolamides, pharmaceutical compositions and methods of use thereof for treating inflammation” (Warner-Lambert Company, priority 1987, dated 1990).
pIC50: −log10 of the molar value. Several values for one entry are separate records, joined by “and”; a condition that tells them apart may be missing. Identical values can stand only once. Like-named read-outs stand apart in the source and are kept apart here. Each block holds one compound with its values, some of them ahead of it.

Legend:
[1] = test system: Human Leukocyte Lipoxygenase; test: Human Leukocyte Lipoxygenase Assay (LDA-H); type: biochemical
Method: Whole blood is collected from normal volunteers and spun in a refrigerated centrifuge for four minutes at 1°-6° C. at 3800 g. The buffy coat is manually separated and washed twice with chilled 0.83% NH4 Cl and centrifuged at 1000 RPM for ten minutes at 4° C. The white cell is suspended in culture media-EMEM supplemented with 6% Agamma human serum, tricine buffer, and neomycin and recentrifuged at 1000 g to yield a pellet containing the leukocytes used for the preparation of the acetone pentane powder.
The acetone-pentane powder is prepared utilizing a modification of the procedure reported for human platelet lipoxygenase. See Siegel, et al, Arachidonate Metabolism via Lipoxygenase and 12-L-hydro-peroxy-5 Eicosatetraenoic Acid Peroxidase Sensitive to Antiinflammatory Drugs, Proc. Natl. Acad. Sci., U.S.A. 77:308, 1980 and D. P. Wallach and V. R. Brown, A Novel Preparation of Human Platlet Lipoxygenase, Biochem. Biophys. Acta. 663:361, 1981. Buffy coat prepared above is resuspended in 5-7 volumes of cold 0.1M Tris buffer, pH 7.4 containing 0.154M NaCl. The suspension is centrifuged at 13,300 g for ten minutes at 4° C. The resultant pellet is retained, resuspended in five volumes of cold acetone, recentrifuged at 13,300 g and resuspended in five volumes of cold pentane. The pentane suspension is centrifuged for ten minutes at 13,300 g to give a pellet which is dried in the cold under vacuum with periodic pulverization. The dry powder is stable for several weeks when stored at -80° C.
Enzyme stock solution is prepared in the following manner. About 15 mg of the acetone-pentane powder is suspended in 4 ml of cold tris buffer (0.1M, pH 7.4), allowed to stand for five minutes, and homogenized thoroughly. The homogenate is sonicated three times for 15 seconds each time, diluted to 7 ml with cold tris buffer (0.1M, pH 7.4), and centrifuged at 4° C. for 60 minutes at 13,300 g. The supernatent is retained and diluted to a total of 10 ml with cold tris buffer (0.1M, pH 7.4) to give the stock enzyme solution. Additional dilutions of 2-50 fold are done as necessary to locate optimal enzyme reaction rate in the assay described below.
Substrate solution is prepared at 100 μM or 1.0 μM concentrations of arachidonic acid or linoleic acid in 0.1M tris buffer, pH 9.0 containing 20% ethanol.
The enzyme reaction is followed spectrophotometrically by the appearance of a conjugated diene product at 234 nm. The reaction is monitored at 24° C. using a Gilford Model 2600 spectrophotometer. […] The effects of inhibitors on the reaction are compared with control reactions run under indentical conditions. Routinely, each compounds of the present invention is incubated with the enzyme for five minutes prior to addition of substrate to initiate the reaction. Inhibition expressed as IC50 as molar concentration of the compound required to reduce reaction rate to 50% control.

[2] = target: T1, human leukocyte 5-lipoxygenase (Homo sapiens, UniProt P09917); test: 5-Lipoxygenase assay in human leukocytes, formation of 5-HETE (5LOA; 5LOA1 or 5LOA2 not specified); type: cell-based
T1 construct: endogenous in cells; host or cells: leukocytes from fresh human blood
T1 sequence (P09917 1-674): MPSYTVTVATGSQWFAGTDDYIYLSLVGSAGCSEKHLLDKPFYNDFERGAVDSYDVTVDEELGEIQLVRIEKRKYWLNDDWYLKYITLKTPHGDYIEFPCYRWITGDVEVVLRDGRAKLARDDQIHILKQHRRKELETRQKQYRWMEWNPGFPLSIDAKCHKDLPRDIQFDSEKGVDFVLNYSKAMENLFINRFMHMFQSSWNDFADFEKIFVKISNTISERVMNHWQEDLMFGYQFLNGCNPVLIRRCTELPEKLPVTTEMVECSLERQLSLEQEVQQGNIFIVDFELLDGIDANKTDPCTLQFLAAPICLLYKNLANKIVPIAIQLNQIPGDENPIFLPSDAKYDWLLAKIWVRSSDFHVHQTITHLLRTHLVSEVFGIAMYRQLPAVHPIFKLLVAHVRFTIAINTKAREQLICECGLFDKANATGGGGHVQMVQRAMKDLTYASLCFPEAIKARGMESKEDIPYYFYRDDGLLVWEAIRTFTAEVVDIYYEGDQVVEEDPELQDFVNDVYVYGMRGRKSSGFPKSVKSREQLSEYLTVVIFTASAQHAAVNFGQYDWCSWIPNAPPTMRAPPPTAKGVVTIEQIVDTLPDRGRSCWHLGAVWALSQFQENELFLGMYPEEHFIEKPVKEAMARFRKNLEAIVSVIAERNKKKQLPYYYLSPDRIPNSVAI
Excerpt: To Evaluate the Effect of Each Compounds as a 5-Lipoxygenase Inhibitor in Comparison to Standard Reference Agents in Human Leukocytes (5LOAl)
The purpose of this assay is to evaluate the activity of each compound as an inhibitor of human leukocyte 5-lipoxygenase.
Arachidonic acid and calcium ionophore A23l87 are obtained from Sigma (St. Louis, Mo.). Silica gel plates, GF are obtained from Analtech (Newark, Del.). Arachidonic acid, (1-^14 C) and 5-HETE (^3 H), 5 (S)-hydroxy-6-trans, 8,11,14-cis eicosatetraenoic acid, are obtained from New England Nuclear (Boston, Mass.). Six percent Dextran-70 in 0.9% NaCl is obtained from Cutter Labs (Berkeley, Calif.).
Fresh blood from normal adult men who had not received any drugs for at least the previous five days is obtained by the Community Research Clinic (WL/PD) using venipuncture and collected into heparinized vacuotainer tubes. To every 100 ml of pooled blood is added 25 ml of dextran solution (6% dextran -70 in 0.9% sodium chloride containing 3% dextrose) and this is mixed gently in a plastic cylinder. The mixture is left to stand at room temperature for at least 90 minutes. The upper layer which is rich in leukocytes and platelets is then carefully decanted into 50 ml plastic tubes and centrifuged at about 100×g for eight minutes in an IEC centrifuge and rotor number 269 (about 600 rpm). The supernatant fluid is discarded and the pellet is resuspended in 10 ml of 0.87% ammonium chloride for exactly two minutes. This procedure is to lyse completely contaminating red blood cells. Leukocytes are then separated by centrifugation for ten minutes. The pellet is washed three times by suspension in 20 ml PBS (sodium chloride, 7.1 g; Na2 HPO4, 1.15 g; KH2 PO4, 0.2 g, and KCl, 0.2 g/L) and centrifuged as before. The final pellet is suspended in PBS containing 0.87 mM CaCl2. Viability of the cells is then checked using trypan blue exclusion method and is found to be over 90%.
Leukocyte cells in suspension (0.98 ml) are incubated with or without test compounds for five minutes at 37° C. in a shaking water bath. At this time a 17 μl mixture is prepared per 1 ml of cell suspension: 100 mM arachidonic acid, 1 μl, 0.05 μCi ^14 C-arachidonic acid in 5 .rho.l; 1 mM calcium ionophore A23187, 10 μl (1). This mixture is added and the incubation continued for five minutes. The reaction is stopped by adding four volumes of absolute ethanol and the mixture is kept in ice for 30 minutes. The floculated precipitate is separated by centrifugation at about 37,000×g for 20 minutes (Beckman Instruments rotor number 40). The alcohol extract is taken to dryness under a stream of nitrogen and the residue is dissolved in 100-200 μl absolute ethanol. At the time any turbidity is removed by centrifugation. An aliquot (25-50 μl) is applied onto 20×20 cm silica gel TLC plate and developed using the following solvent system: diethyl ether, petroleum ether (2040° C.), acetic acid (50:50: 1 v/v). Zones of 1 cm apart are scraped from the TLC plate and transferred to mini-vials. Methanol (0.5 ml) is added to dissolve the radioactivity adsorbed to the silica gel and scintillation fluid (H.P., Beckman), 5 ml is then added and vials are counted in a liquid scintillation counter. A sample of ^3 H-5-HETE is applied and used for the identification of the formed 5-HETE.
Total radioactivity in the test as well as the control samples are normalized and the amount of 5-HETE present is calculated accordingly.
IC50 values are defined as the concentrations of test agents which caused a 50% inhibition of the formation of 5-HETE as compared to control and are determined by inspection of the concentration-response curves.
The formation of 5-HETE in human leukocytes is considered a measure of 5-lipoxygenase activity. The protocol is described in the following.
Fresh heparinized or EDTA treated human blood is mixed with 6% dextran-3% dextrose in isotonic saline in the ratio 0.25 ml dextran solution per 1.0 ml blood. […]

SMILES: COc1ccc(CCc2ccc(NC(=O)C(=O)C3=C(O)c4ccccc4S(=O)(=O)C3)cc2)cc1OC [Example 3, N-[4-[2-(3,4-Dimethoxyphenyl)ethyl)phenyl]-4-hydroxy-α-oxo-2H-1-benzothiopyran-3-acetamide, 1,1-dioxide]
LDAH, % Inhibition ([1]; 1.00 E -5 M): 0.0%
LDAH, % Inhibition ([1]; 2.50 E -5 M): 0.0%

SMILES: O=C(Nc1ccc(CCCc2ccc(O)c(O)c2)cc1)C1CS(=O)(=O)c2ccccc2C1=O (centres unmarked) [Example 22]
pIC50 ([1]; conjugated diene at 234 nm, pH 9.0, 24 °C, read-out: LDAH, concentration for 50% inhibition (IC)): 4.89

SMILES: O=C(Nc1ccc(CCCCc2ccc(O)c(O)c2)cc1)C1CS(=O)(=O)c2ccccc2C1=O (centres unmarked) [Example 23, N-[4-[4-(3,4-Dihydroxyphenyl)butyl]phenyl]-3,4-dihydro-4-oxo-2H-1-benzothiopyran-3-carboxamide, 1,1-dioxide]
LDAH, % Inhibition ([1]; 2.50 E -5 M): 0.0%

SMILES: Cc1ccccc1CCc1ccc(NC(=O)C2=C(O)c3ccccc3S(=O)(=O)C2)cc1 [Example 43]
LDAH, % Inhibition ([1]; 8.00 E -5 M): 0.0%

SMILES: Cc1ccc(CCc2ccc(NC(=O)C3CS(=O)(=O)c4ccccc4C3=O)cc2)cc1 (centres unmarked) [Example 45]
LDAH, % Inhibition ([1]; 8.00 E -5 M): 0.0%

SMILES: CCOC(=O)c1ccc(CCc2ccc(NC(=O)C3CS(=O)(=O)c4ccccc4C3=O)cc2)cc1 (centres unmarked) [Example 47, 4-[2-[4-[[(3,4-Dihydro-4-oxo-2H-1-benzothiopyran-3-yl)carbonyl]amino]phenyl]ethyl]benzoic acid, ethyl ester, 1,1-dioxide]
LDAH, % Inhibition ([1]; 8.00 E -5 M): 0.0%

SMILES: COc1ccc(CCc2ccc(NC(=O)C3CS(=O)(=O)c4ccccc4C3=O)cc2)cc1NC(C)=O (centres unmarked) [Example 50, N-[4-[2-(3-Acetylamino-4-methoxy)ethyl]phenyl]-3,4-dihydro-4-oxo-2H-1-benzothiopyran-3-carboxamide, 1,1-dioxide]
LDAH, % Inhibition ([1]; 8.00 E -5 M): 0.0%

SMILES: O=C(Nc1ccc(CCc2ccc(Cl)c(Cl)c2)cc1)c1sc2ccccc2c1O [Example 144]
5LOA, % Inhibition ([2]; 2.00 E -5 M): 42.5%
5LOA, % Inhibition ([2]; 5.00 E -6 M): 36.0%

SMILES: O=C(Nc1ccc(CCc2cc(C(F)(F)F)cc(C(F)(F)F)c2)cc1)c1sc2ccccc2c1O [Example 148, Benzo[b]thiophene-2-carboxamide, N-[4-[2-[3,5-bis-(trifluoromethyl)phenyl]ethyl]phenyl]-3-hydroxy]
5LOA, % Inhibition ([2]; 2.00 E -5 M): 19.0%
5LOA, % Inhibition ([2]; 5.00 E -6 M): +7.3%

SMILES: CCCCCCCCCCc1ccc(NC(=O)C(=O)C2=C(O)c3ccccc3OC2)cc1 [Example 151, N-(4-Decylphenyl)-4-hydroxy-α-oxo-2H-1-benzopyran-3-acetamide]
5LOA, % Inhibition ([2]; 1.00 E -5 M): 13.9%
5LOA, % Inhibition ([2]; 4.00 E -5 M): 18.0%

The next lines start with the values.

LDAH, % Inhibition ([1]; 2.50 E -5 M): 0.0%
SMILES: O=C(Nc1ccc(Cc2ccc(O)c(O)c2)cc1)C1CS(=O)(=O)c2ccccc2C1=O (centres unmarked) [Example 14, N-[4-[(3,4-Dihydroxyphenyl)methyl]phenyl]-3,4-dihydro-4-oxo-2H-1-benzothiopyran-3-carboxamide, 1,1-dioxide]

LDAH, % Inhibition ([1]; 8.00 E -5 M): 0.0%
SMILES: COc1ccccc1CCc1ccc(NC(=O)C2=C(O)c3ccccc3S(=O)(=O)C2)cc1 [Example 37]

LDAH, % Inhibition ([1]; 2.50 E -5 M): 0.0%
SMILES: CCCCOc1ccc(CCc2ccc(NC(=O)C3CS(=O)(=O)c4ccccc4C3=O)cc2)cc1 (centres unmarked) [Example 48]

5LOA, % Inhibition [2]: +1.6%
5LOA, % Inhibition ([2]; 2.00 E 0 M): 9.2%
SMILES: COc1ccc(CCc2ccc(NC(=O)C3=C(O)c4ccccc4S(=O)(=O)N3C)cc2)cc1OC [Example 83, N-[4-[2-(3,4-Dimethoxyphenyl)ethyl)phenyl]-4-hydroxy-2-methyl-2H-1,2-benzothiazine-3-carboxamide, 1,1-dioxide]

5LOA, % Inhibition ([2]; 1.00 E -5 M): 15.3%
5LOA, % Inhibition ([2]; 2.00 E -5 M): 33.7%
5LOA, % Inhibition ([2]; 5.00 E -6 M): 6.3%
SMILES: O=C(Nc1ccc(CCc2ccc(Cl)c(Cl)c2)cc1)C(=O)c1oc2cc3ccccc3cc2c1O [Example 113, Naphtho[2,3-b]furan-2-acetamide, N-[4-[2-(3,4-dichlorophenyl)ethyl]phenyl]-3-hydroxy-α-oxo]

5LOA, % Inhibition ([2]; 1.00 E -5 M): 23.0%
5LOA, % Inhibition ([2]; 2.00 E -5 M): 38.1% and 33.9%
5LOA, % Inhibition ([2]; 4.00 E -5 M): 76.3%
5LOA, % Inhibition ([2]; 8.00 E -5 M): 79.2%
SMILES: COc1ccc(CCc2ccc(NC(=O)C(=O)C3=C(O)c4ccccc4OC3)cc2)cc1OC [Example 152]

5LOA, % Inhibition ([2]; 2.00 E -5 M): 10.1%
5LOA, % Inhibition ([2]; 4.00 E -5 M): 2.3%
5LOA, % Inhibition ([2]; 5.00 E -6 M): +7.6%
SMILES: O=C(Nc1ccc(CCc2ccc(Cl)c(Cl)c2)cc1)C(=O)C1=C(O)c2ccccc2OC1 [Example 155, 2H-1-Benzopyran-3-acetamide, N-[4-[2-(3,4-dichlorophenyl)ethyl]phenyl]-4-hydroxy-α-oxo]
